Assay results published in patent publication US12157740B2, “Triazolopyridines and triazolopyrimidines that lower stress-induced p-tau” (NantNeuro, LLC, priority 2015, dated 2024).

Experiments:
[1] = tested on: tau and p-tau in SH-Sy5Y cells; assay: screens for tau and p-tau levels in SH-Sy5Y cells (no CRF stated); type: cell-based; conditions: for tau and/or p-tau lowering effect compared with J03: SH-Sy5Y screens (J04: p-tau only, FIG. 19; J17: FIGS. 21A-B; J14: FIG. 28A)
Method: As described below, in vitro studies were performed using SHSY-5Y cells. These cells are a useful neurological model that differentiate into cells with morphological and biochemical characteristics of mature neurons including mature isoforms of tau. […]

[2] = in vivo pharmacokinetics, plasma and brain levels; parameters: species or system mouse; conditions: for brain levels after subcutaneous injection: peak for J14 and J19; for time of peak levels after SQ injection: plasma and brain (J19: brain); for levels after oral delivery compared with injection: J32: plasma and brain
[3] = tested on: tau and phospho-tau in SHSY-5Y cells; assay: CRF-induced tau, p-tau and sAPPα changes in SHSY-5Y cells; type: cell-based; conditions: for p-tau/tau ratio: FIG. 32C
mice = assay: J14 daily SQ injection for 12 days in mice; type: in vivo, mouse
Method: (§1) Animal experiments were performed using J20 mice. The J20 mouse is a model of for Alzheimer's disease. This model overexpresses human APP with two mutations linked to familial Alzheimer's disease (the APP KM670/671NL (Swedish) and 5APP V717F (Indiana) mutations).
FIGS. 31A-31F depict total sAPPα, Aβ1-40, and Aβ1-42, and tau, p-tau, and p-tau/tau ratio, respectively, after daily SQ injection at 10 mkd does for 12 days.

J20 mice = assay: J17 pilot study in J20 mice (oral, 28 days); type: in vivo, mouse
Method: as §1
In a J17 pilot study (#1 pilot study) male and female J20 mice were housed singly and treated with J17 at 10 rnkd by oral delivery for 28 days.

tau and p-tau = assay: effect of J03 and J19 on tau and p-tau (FIG. 39E-39F, system not given)
Source text: JI9 decreased tau and both J03 and JI9 decreased p-tau (FIG. 39E). Therefore, while the p-tau/tau ratio looks unchanged for J19 FIG. 39F. This is due to the tau decrease and not due to a lack of effect.

[4] = primary screen in SH-Sy5Y cells, FIG. 19
[5] = CRF-1 at 0 nM, 50 nM and 100 nM, FIGS. 29B-29C
[6] = CRF-1 at 100 nM for 3 days, compound at 20 nM, FIG. 29A
[7] = compared to a control J03, FIGS. 33A-33B
[8] = 10 mg/kg intraperitoneal, FIG. 33D

CCC(COC)n1nnc2c(Nc3ccc(OC)cc3C)nc(C)nc21 (centres unmarked) [J04]
tau and/or p-tau lowering effect compared with J03 [1]: same level as J03 | p-tau [1, 4]: did lower | tau [1, 4]: did not lower | clearance after injection compared with oral delivery ([2]; SQ injection, FIG. 20A): slower | brain levels after SQ injection ([2]; dose not given, FIG. 20A): ~55 ng/g | brain levels after oral delivery ([2]; dose not given, FIG. 20A): ~55 ng/g

CCC(COC)n1nnc2c(N(C)c3c(C)cc(C)cc3C)nc(C)nc21 (centres unmarked) [J14]
p-tau [3, 5]: decreasing | p-tau and tau decrease compared with J03 [3, 5]: more than J03 | tau [3, 5]: decreasing | p-tau [3, 6]: decreased | total tau [3, 6]: decreased | tau and/or p-tau lowering effect compared with J03 [1]: more than J03 | p-tau ([1]; screen of FIG. 28A): decreased | total tau ([1]; screen of FIG. 28A): decreased | p-tau ([1]; screen of FIG. 28B): neither J14 nor J03 decreased | total tau ([1]; screen of FIG. 28B): neither J14 nor J03 decreased | brain/plasma ratio after SQ injection ([2]; 10 mg/kg SQ): 0.6 | plasma level at peak after subcutaneous injection ([2]; 10 mg/kg SQ, FIG. 30A): 798 ng/mL | brain levels after subcutaneous injection ([2]; 10 mg/kg SQ): 485 ng/g | time of peak levels after SQ injection ([2]; 10 mg/kg SQ): 2 h | time of peak brain levels after oral feeding ([2]; 10 mg/kg oral, FIG. 30B): 2 h | brain levels after oral delivery ([2]; 10 mg/kg oral, peak for J14): 13.3 ng/g | brain:plasma ratio after oral delivery ([2]; oral feeding at 10 mg/kg): 1.33 | tau protein (mice; B254 mice (Swedish, Indiana and D664A APP mutations), trend for both vehicle and J14 treated, FIGS. 31D-31F): trend for lower levels | Aβ1-40 (mice; daily SQ injection 10 mkd for 12 days, FIG. 31B): trend toward decrease | Aβ1-42 (mice; daily SQ injection 10 mkd for 12 days, FIG. 31C): trend toward decrease | sAPPα (mice; daily SQ injection 10 mkd for 12 days, compared to vehicle treated mice, FIG. 31A): decrease

CCC(COC)Nc1nc(C)nc2c1nnn2-c1ccc(OC)cc1C (centres unmarked) [J17]
tau after exposure to CRF ([3]; FIG. 21D): decreased | p-tau after exposure to CRF ([3]; FIG. 21E): decreased | p-tau with increasing concentrations of CRF ([3]; seen at all concentrations of CRF tested, excluding 0, FIG. 22C): decrease | sAPPα with increasing concentrations of CRF ([3]; seen without CRF and at 50 nM, not at other concentrations, FIG. 22A): decrease | tau with increasing concentrations of CRF ([3]; seen without CRF and at 50 and 100 nM, FIG. 22B): decrease | sAPPα after exposure to CRF ([3]; versus control, FIG. 21C): the same for control as for J17 | tau ([1]; SH-Sy5Y cells, FIG. 21A): significantly lower | p-tau ([1]; SH-Sy5Y cells, FIG. 21B): significantly lower | tau and/or p-tau lowering effect compared with J03 [1]: greater | plasma levels after subcutaneous injection ([2]; 10 mg/kg SQ, FIG. 23A): ~4000 ng/m | brain levels after subcutaneous injection ([2]; 10 mg/kg SQ): ~400 ng/g | plasma levels relative to brain levels after oral delivery ([2]; 10 mg/kg oral, FIG. 23B): ~10 fold | brain levels after oral delivery ([2]; 10 mg/kg oral, peak for J14): ~50 ng/g | Aβ1-40/Aβ1-42 ratio (J20 mice; FIG. 26C): no significant difference | Aβ1-42 (J20 mice; data from all mice, FIG. 26A): no significant differences | activity (J20 mice; male and female J20 mice housed singly, oral 28 days, not significant, FIG. 24A): lowered | p-tau (J20 mice; male mice, FIG. 27B): slightly lower | p-tau/tau ratio (J20 mice; male mice, FIG. 27C): lower still | Aβ1-42 (J20 mice; male mice, low outlier from one sibling pair eliminated, FIG. 26B): significant reduction | Tau (J20 mice; males, FIG. 27A): increased | sAPPβ (J20 mice; oral 28 days, FIG. 25B): decrease | novel object preference, overall (J20 mice; oral 28 days, all mice, FIG. 24B): increase with J17 was significant | sAPPα (J20 mice; oral 28 days, both genders, FIG. 25A): increase with J03 but not J17 | ratio sAPPα/sAPPβ (J20 mice; oral 28 days, males, FIG. 25C): greater

CCC(COC)Nc1nc(C)nc2c1nnn2-c1ccc(Cl)cc1C (centres unmarked) [J19, 3-(4-Chloro-2-methylphenyl)-N-(1-methoxybutan-2-yl)-5-methyl-3H-[1,2,3]triazolo[4,5-d]pyrimidin-7-amine]
p-tau/tau ratio ([3]; at 50 and 100 nM CRF): highly significantly decreased | tau ([3]; in the absence of CRF and in the presence of 100 nM CRF, FIG. 32A): trend to decrease | p-tau/tau ratio ([3]; in the absence of CRF): decreased | p-tau ([3]; in the presence and absence of CRF, FIG. 32B): significantly reduced | sAPPα ([3]; with and without CRF, FIG. 32D): trend for sAPPα to be higher | brain levels after subcutaneous injection ([2]; 10 mg/kg SQ): ~190 ng/g | time of peak levels after SQ injection ([2]; 10 mg/kg SQ): 4 h | levels after oral delivery compared with injection ([2]; 10 mg/kg oral): much lower | persistence of brain levels after SQ injection ([2]; 10 mkd SQ, FIG. 32G): relatively high until 8 hours | p-tau (tau and p-tau; FIG. 39E): decreased | tau (tau and p-tau; FIG. 39E): decreased | p-tau/tau ratio (tau and p-tau; FIG. 39F as printed, due to the tau decrease): unchanged

CCC(COC)n1nnc2c(N(C)c3ccc(OC)cc3C)nc(C)nc21 (centres unmarked) [J30]
total tau levels [1, 7]: lowered

CCC(COC)N(C)c1nc(C)nc2c1nnn2-c1c(C)cc(C)cc1C (centres unmarked) [J32]
p-tau/tau ratio ([1]; 1p M of J32 in SH-SY5Y cells, compared to J03 and a control, FIG. 33C): significant decrease | p-tau/tau ratio [1, 7]: significantly lowered | brain/plasma ratio after SQ injection ([2]; 10 mg/kg SQ): 0.75 | time of peak levels after SQ injection ([2]; 10 mg/kg SQ): 1 h | clearance from brain after IP injection [2, 8]: cleared out slowly over 8 hours | time of peak brain levels after IP injection [2, 8]: 2 h | levels after oral delivery compared with injection ([2]; 10 mg/kg oral): much lower
